Columns and labels:
[1] = test system: inflammatory bowel disease-induced mouse model (DSS); test: Clinical symptom analysis (body weight, DAI, survival) in 2% DSS inflammatory bowel disease-induced mouse model; assay type: in vivo
Experimental: An inflammatory bowel disease-induced mouse model using dextran sodium sulfate (DSS) was prepared by the following method.
Specifically, male C57BL/6 mice (7 to 12 weeks old, body weight of 18 to 30 g) were adapted for one week and used in the experiment. Animal rearing was carried out under the conditions of a temperature of 25° C. and a day and night cycle (12 hours night/12 hours daytime), and feed and drinking water were freely fed. All the animals were managed according to the guidelines for use of experimental animals of Seoul National University IACUC (IACUC: SNU-151223-4-1). On the day of administration of DSS (MP Biomedicals, Santa Ana, Calif., USA) (Day 0), mice were weighed and marked on the tail.
Next, male C57BL/6 mice were fed with a 2% DSS solution together with drinking water from Day 0 of the experiment to induce inflammatory bowel disease. DPBS or 10, 5, 2.5, or 1 mg/kg sodium taurodeoxycholic acid (TDCA) was administered in 0.1 ml by oral gavage one time a day from Day 1 of the experiment. Alternatively, 0.1 ml of 5 mg/kg TDCA was administered one time a day by oral gavage 2 days before DSS administration.
The 2% DSS solution was used after being prepared by dissolving DSS powder in sterilized distilled water and filtering the solution. The TDCA was dissolved in DPBS (Dulbecco's phosphate-buffered saline) and used.
The disease activity indexes (DAI) including body weight, body weight loss, stool consistency, and bloody stool were measured daily. DAI was scored according to the following [Table 1].
(§1) Specifically, female C57BL/6 mice were fed with a 2% DSS solution or DPBS together with drinking water for 10 days from Day 0 of the experiment by the same method as that described in <Example 1>, DPBS or 5 mg/kg TDCA was administered to the mice by oral gavage one time a day for 11 days from Day 1 of the experiment, and the body weight and DAI were measured daily. As a control, mice freely fed with drinking water were used.
Specifically, female C57BL/6 mice were fed with a 2% DSS solution or DPBS together with drinking water for 10 days from Day 0 of the experiment by the same method as that described in <Example 1>, DPBS or 10, 5, 2.5, or 1 mg/kg TDCA was administered to the mice by oral gavage one time a day for 11 days from Day 1 of the experiment, and the body weight and DAI were measured daily. As a control, mice freely fed with drinking water were used.
Specifically, female C57BL/6 mice were fed with a 2% DSS solution together with drinking water for 7 days from Day 0 of the experiment by the same method as that described in <Example 1>, DPBS or 5 mg/kg TDCA was administered to the mice by oral gavage from Day 1 of DSS administration or 2 days before DSS administration, and the body weight and DAI were measured daily. As a control, mice freely fed with drinking water were used.
as §1, with “Specifically, C57BL/6-Gpbar1^tm1(KOMP)Vlcg mice (TGR5 KO, KOMP Repository, The Knockout Mouse Project, University of California, Davis, Calif.) were used as TGR5 knockout (TGR5^−/−) female C57BL/6 mice. The TGR5^−/− female C57BL/6 mice or TGR5 normal (WT)” for “Specifically,”, “1>.” for “1>,”

[2] = test system: inflammatory bowel disease-induced mouse model (DSS); test: Histopathological symptom analysis (colon length, histological state and score) in 2% DSS mouse model; assay type: in vivo
Experimental: After the experiment was completed, the mice were euthanized with CO2 and the bowels were excised. Next, the bowels were put in cold 1×DPBS and the remaining mesenteric adipose tissue was isolated. At this time, the colon length was measured. Next, the tail end of the colon was opened and wound up with scissors to obtain colon tissue. The obtained colon tissue was fixed in 10% neutral buffered formalin (Sigma-Aldrich, HT501128-4L, St. Louis, Mo., USA) at room temperature for 48 hours and then treated in a tissue processor (Excelsior ES, Thermo scientific, Waltham, Mass., USA) for 12 hours. The processed tissue was sectioned and paraffinized using a microtome (Microm, HM 340E, Thermo Scientific, Waltham, Mass., USA) and an embedding system (HistoStar, Thermo Scientific, Waltham, Mass., USA). Next, the processed tissue was stained with hematoxylin and eosin, and visualized under an optical microscope (Motic, BA310, Redding, Calif., USA) to confirm the histopathological state, and the histopathological state was scored to histological score according to the criteria in the following [Table 2].
Specifically, female C57BL/6 mice were fed with a 2% DSS solution or DPBS together with drinking water for 7 days from Day 0 of the experiment by the same method as that described in <Example 1>, DPBS or 5 mg/kg TDCA was administered to the mice by oral gavage one time a day for 6 days from Day 1 of the experiment, and the body weight and DAI were measured daily. As a control, mice freely fed with drinking water were used. Next, the mice were sacrificed on Days 5 and 7 of the experiment by the same method as that described in <Example 2>, and histopathological symptom analysis was performed.
Specifically, female C57BL/6 mice were fed with a 2% DSS solution or DPBS together with drinking water for 7 days from Day 0 of the experiment by the same method as that described in <Example 1>, DPBS or 10, 5, 2.5, or 1 mg/kg TDCA was administered to the mice by oral gavage one time a day for 6 days from Day 1 the experiment, and the body weight and DAI were measured daily. As a control, mice freely fed with drinking water were used.
Next, the mice were sacrificed on Day 8 of the experiment by the same method as that described in <Example 2>, and histopathological symptom analysis was performed.
The mice were sacrificed on Day 8 of the experiment by the same method as that described in <Example 2>, and the colon length was measured.

[3] = 2% DSS 7 days, 5 mg/kg TDCA oral gavage, FIG. 2B
[4] = 2% DSS 7 days, 10, 5, 2.5, or 1 mg/kg TDCA, Day 8, FIG. 5B

`C[C@H](CCC(=O)NCCS(=O)(=O)O)[C@H]1CC[C@H]2[C@@H]3CC[C@@H]4C[C@H](O)CC[C@]4(C)[C@H]3C[C@H](O)[C@]12C` [TDCA, sodium taurodeoxycholic acid] was tested, and the “initial body weight lost on Day 10” value ([1]; 2% DSS 10 days, 5 mg/kg TDCA oral gavage one time a day for 11 days from Day 1, DSS+DPBS group about 15%, FIG. 1A) was “about 5%”, the survival rate ([1]; 2% DSS 10 days, 5 mg/kg TDCA oral gavage one time a day, DSS+DPBS group 60%, FIG. 1C) was 100% and the “start of body weight loss later than the DSS+DPBS group” value ([1]; 2% DSS 10 days, 5 mg/kg TDCA oral gavage one time a day, FIG. 1A) was “about 2 days”. The “DAI (disease activity index) change” value ([1]; 2% DSS 10 days, 5 mg/kg TDCA oral gavage one time a day, FIG. 1B) was “lower than that in the DSS+DPBS group”, the DAI change ([1]; 2% DSS 10 days, 10, 5, 2.5, or 1 mg/kg TDCA, FIG. 4B) was “lower than that in the DSS+DPBS group” and the “degree of alleviation of body weight loss” value ([1]; 2% DSS 10 days, TDCA at 5 and 10 mg/kg, among 10, 5, 2.5, 1 mg/kg, FIG. 4A) was “superior”. The DAI change ([1]; 2% DSS 10 days, TDCA at 10, 5, and 2.5 mg/kg, among 10, 5, 2.5, 1 mg/kg, FIG. 4B) was “DAI was lower”, the DAI change ([1]; DSS+TDCA group: 5 mg/kg TDCA from Day 1 of DSS administration, 2% DSS 7 days, FIG. 6B) was “similarly decreased” and the DAI change ([1]; DSS+preTDCA group: 5 mg/kg TDCA from 2 days before DSS administration, 2% DSS 7 days, FIG. 6B) was “similarly decreased”. The “initial body weight lost on Day 10” value ([1]; TGR5 normal (WT) mice, 2% DSS 10 days, 5 mg/kg TDCA oral gavage one time a day, FIG. 8A) was “about 5%”, the DAI change ([1]; TGR5 normal (WT) mice, 2% DSS 10 days, 5 mg/kg TDCA, FIG. 8B) was “lower than those in the other groups” and the survival rate ([1]; TGR5 normal (WT) mice, 2% DSS 10 days, 5 mg/kg TDCA, FIG. 8C) was 100%. The colon length change ([2]; 2% DSS 7 days, 5 mg/kg TDCA oral gavage one time a day for 6 days, FIG. 2A) was “the decrease in colon length was slight”, the average histological score ([2]; 2% DSS 7 days, 5 mg/kg TDCA oral gavage, DSS+DPBS group about 7, FIG. 2C) was “about 4” and the “epithelial cell defects (histological state)” value [2, 3] was “not observed”. For the same compound, the “infiltration of inflammatory cells into the mucous membrane” value [2, 3] was “slight”, the ulcer ([2]; 2% DSS 7 days, 5 mg/kg TDCA oral gavage, FIG. 2C) was “the ulcer was alleviated” and the colon length change ([2]; 2% DSS 7 days, 10, 5, 2.5, or 1 mg/kg TDCA, Day 8, FIG. 5A) was “the decrease in colon length was slight”. The “epithelial cell defects (histological state)” value [2, 4] was “not observed”, the “infiltration of inflammatory cells into the mucous membrane” value [2, 4] was “alleviated” and the colon length change ([2]; 2% DSS 7 days, TDCA at 5 and 10 mg/kg, Day 8, FIG. 5A) was “the decrease in colon length was slighter”. For the same compound, the average histological score ([2]; 2% DSS 7 days, TDCA at 5 and 10 mg/kg, Day 8, FIG. 5C) was “about 4”, the ulcer alleviating effect ([2]; 2% DSS 7 days, TDCA at 5 and 10 mg/kg, Day 8, FIGS. 5B and 5C) was “superior” and the colon length change ([2]; DSS+TDCA group: 5 mg/kg TDCA from Day 1 of DSS, Day 8, FIG. 6C) was “the decrease in colon length was suppressed”. For the same compound, the colon length change ([2]; DSS+preTDCA group: 5 mg/kg TDCA from 2 days before DSS, Day 8, FIG. 6C) was “the decrease in colon length was suppressed”.

From patent US20210386761A1, “COMPOSITION FOR PREVENTING OR TREATING INFLAMMATORY BOWEL DISEASE, CONTAINING, AS ACTIVE INGREDIENT, TAURODEOXYCHOLIC ACID OR PHARMACEUTICALLY ACCEPTABLE SALT THEREOF” (SHAPERON INC., priority 2019, published 2021)
